# Assay results published in paper doi:10.1101/839787v1 (bioRxiv, 2019).
# Where a SMILES comes first, the peptide text is derived from it. Bridges are numbered along the chain shown (N, C = ends). Where no end group is shown, it is not given here.
# Tests used:
# [1] = In vitro stability of peptides in human plasma; assay type: in vitro ADME; conditions: for main metabolite / main degradation product: Mass Spectrometry
# [2] = system: TNBS-induced chronic colitis; assay: TNBS-induced chronic colitis; assay type: in vivo, Balb/c mice; conditions: tolerance regime, treatment during first week only; n=8
# [3] = system: TNBS-induced acute colitis; assay: TNBS-induced acute colitis, curative regime; assay type: in vivo, BALB/c mice; conditions: TNBS 3 mg/mouse
# Raw 264 macrophages = assay: Inflammatory response in vitro: LPS-activated macrophages; assay type: cell-based, murine; conditions: 100 nmol/L peptide
# [4] = system: DSS-induced acute colitis; assay: DSS-induced acute ulcerative colitis; assay type: in vivo, C57Bl/6 mice; conditions: 5% DSS, i.p. days 1, 2, 3, day 8
# Aqueous solubility = assay type: physicochemical; conditions: aqueous buffer solution, observation in words
# [5] = system: DSS-induced chronic colitis; assay: DSS-induced chronic; assay type: in vivo, C57Bl/6 mice
# [6] = system: TNBS-induced acute colitis; assay: TNBS-induced acute colitis, protective regime; assay type: in vivo, BALB/c mice; conditions: TNBS 3 mg/mouse, 0.4 mg/kg systemic, n=8
compound,measurement,setting,value
"C[C@@H](O)[C@@H]1NC(=O)[C@H](CCCCN)NC(=O)[C@H](Cc2c[nH]c3ccccc23)NC(=O)[C@H](Cc2ccccc2)NC(=O)[C@H](Cc2ccccc2)NC(=O)[C@H](CC(N)=O)NC(=O)[C@H](CCCCN)NC(=O)[C@@H](NC(=O)[C@@H]2CCCN2)CSSC[C@@H](C(=O)N[C@@H](CCCCN)C(=O)O)NC(=O)[C@H](CO)NC(=O)[C@H](CO)NC(=O)[C@H](Cc2ccccc2)NC1=O [Cortistatin, Cortistatin-14, reference compound] (H-PCKNFFWKTFSSCK-OH; disulfide 2-13)",main metabolite / main degradation product,[1],deletion of L-Lys14
CCCCCCCC(=O)N1CCC[C@H]1C(=O)N[C@H]1CSSC[C@@H](C(=O)N[C@@H](CCCCN)C(=O)O)NC(=O)[C@H](CO)NC(=O)[C@H]([C@@H](C)O)NC(=O)[C@H](Cc2ccccc2)NC(=O)[C@H]([C@@H](C)O)NC(=O)[C@H](CCCCN)NC(=O)[C@@H](Cc2c[nH]c3ccccc23)NC(=O)[C@H](Cc2ccccc2)NC(=O)[C@H](Cc2c(C)cc(C)cc2C)NC(=O)[C@H](CC(N)=O)NC(=O)[C@H](CCCCN)NC1=O [Analog 5],"protection from subsequent expositions to TNBS, tolerance effect",[2],significantly protected
same,effect on clinical signs and survival,"[3]; curative regime days 3, 4, 5, i.p. or s.c. 0.4 mg/kg, n=8",significantly effective
same,effectiveness of oral administration versus i.p. and s.c.,"[3]; curative regime, oral",less effective
same,"effect on production of TNFα, IL-6 and NO by activated macrophages",Raw 264 macrophages,strikingly reduced
same,Colon length,[4]; mean of n=8,8.65 cm
same,Colon weight,[4]; mean of n=8,625 mg
same,Macroscopic score for colon (0-8),[4]; mean of n=8,1
same,Colon weight,[4]; mouse 1,624 mg
same,Macroscopic score for colon (0-8),[4]; mouse 1,1
same,Colon length,[4]; mouse 2,8.7 cm
same,Colon weight,[4]; mouse 2,631 mg
same,Macroscopic score for colon (0-8),[4]; mouse 2,1
same,Colon length,[4]; mouse 3,9.3 cm
same,Colon weight,[4]; mouse 3,581 mg
same,Macroscopic score for colon (0-8),[4]; mouse 3,0
same,Colon length,[4]; mouse 4,7.8 cm
same,Colon weight,[4]; mouse 4,662 mg
same,Macroscopic score for colon (0-8),[4]; mouse 4,2
same,Colon length,[4]; mouse 5,9.2 cm
same,Colon weight,[4]; mouse 5,611 mg
same,Macroscopic score for colon (0-8),[4]; mouse 5,0
same,Colon length,[4]; mouse 6,8.4 cm
same,Colon weight,[4]; mouse 6,597 mg
same,Macroscopic score for colon (0-8),[4]; mouse 6,1
same,Colon length,[4]; mouse 7,8.6 cm
same,Colon weight,[4]; mouse 7,624 mg
same,Macroscopic score for colon (0-8),[4]; mouse 7,1
same,Colon length,[4]; mouse 8,8.1 cm
same,Colon weight,[4]; mouse 8,677 mg
same,Macroscopic score for colon (0-8),[4]; mouse 8,2
same,aqueous solubility,Aqueous solubility,soluble
same,Lengths (cm) for colons at day 25 after initiation of DSS treatment,"[5]; Group 3: DSS+A5 one cycle, mean of 8 mice",8.24 cm
same,Lengths (cm) for colons at day 25 after initiation of DSS treatment,"[5]; Group 3: DSS+A5 one cycle, mouse 1",8.15 cm
same,Lengths (cm) for colons at day 25 after initiation of DSS treatment,"[5]; Group 3: DSS+A5 one cycle, mouse 2",8.78 cm
same,Lengths (cm) for colons at day 25 after initiation of DSS treatment,"[5]; Group 3: DSS+A5 one cycle, mouse 3",7.86 cm
same,Lengths (cm) for colons at day 25 after initiation of DSS treatment,"[5]; Group 3: DSS+A5 one cycle, mouse 5",8.77 cm
same,Lengths (cm) for colons at day 25 after initiation of DSS treatment,"[5]; Group 3: DSS+A5 one cycle, mouse 6",7.24 cm
same,Lengths (cm) for colons at day 25 after initiation of DSS treatment,"[5]; Group 3: DSS+A5 one cycle, mouse 7",7.02 cm
same,Lengths (cm) for colons at day 25 after initiation of DSS treatment,"[5]; Group 3: DSS+A5 one cycle, mouse 8",9.14 cm
same,Lengths (cm) for colons at day 25 after initiation of DSS treatment,"[5]; Group 4: DSS+A5 two cycles, mean of 8 mice",9.64 cm
same,Lengths (cm) for colons at day 25 after initiation of DSS treatment,"[5]; Group 4: DSS+A5 two cycles, mouse 3",9.85 cm
same,Lengths (cm) for colons at day 25 after initiation of DSS treatment,"[5]; Group 4: DSS+A5 two cycles, mouse 5",9.34 cm
same,Lengths (cm) for colons at day 25 after initiation of DSS treatment,"[5]; Group 4: DSS+A5 two cycles, mouse 7",9.61 cm
same,Lengths (cm) for colons at day 25 after initiation of DSS treatment,"[5]; Group 4: DSS+A5 two cycles, mouse 8",9.15 cm
same,"protection from body weight loss, bloody diarrhea and mortality",[6],significantly protected
same,main metabolite / main degradation product,[1],peptide 6
same,increase of stability in serum with respect to the native neuropeptide,[1]; from half-lives in serum,ten-fold
"Cc1cc(C)c(C[C@@H]2NC(=O)[C@H](CC(N)=O)NC(=O)[C@H](CCCCN)NC(=O)[C@@H](NC(=O)[C@@H]3CCCN3)CSSC[C@@H](C(=O)N[C@@H](CCCCN)C(=O)O)NC(=O)[C@H](CO)NC(=O)[C@H]([C@@H](C)O)NC(=O)[C@H](Cc3ccccc3)NC(=O)[C@H]([C@@H](C)O)NC(=O)[C@H](CCCCN)NC(=O)[C@@H](Cc3c[nH]c4ccccc34)NC(=O)[C@H](Cc3ccccc3)NC2=O)c(C)c1 [Analog 4, [L-Msa5_D-Trp7_L-Thr11]-CST14]","effect on production of TNFα, IL-6 and NO by activated macrophages",Raw 264 macrophages,no effect
"Cortistatin-29 (QEGAPPQQSARRDRMPCRNFFWKTFSSCK; disulfide 17-28 (inferred); ends not checked; UniProt O00230 77-105, looked up)",Colon length,[4]; mean of n=8,9.08 cm
same,Colon weight,[4]; mean of n=8,621 mg
same,Macroscopic score for colon (0-8),[4]; mean of n=8,0.87
same,Colon length,[4]; mouse 1,8.9 cm
same,Colon weight,[4]; mouse 1,622 mg
same,Macroscopic score for colon (0-8),[4]; mouse 1,1
same,Colon length,[4]; mouse 2,9.1 cm
same,Colon weight,[4]; mouse 2,634 mg
same,Macroscopic score for colon (0-8),[4]; mouse 2,1
same,Colon length,[4]; mouse 3,9.5 cm
same,Colon weight,[4]; mouse 3,578 mg
same,Macroscopic score for colon (0-8),[4]; mouse 3,0
same,Colon length,[4]; mouse 4,8.4 cm
same,Colon weight,[4]; mouse 4,655 mg
same,Macroscopic score for colon (0-8),[4]; mouse 4,2
same,Colon length,[4]; mouse 5,9.2 cm
same,Colon weight,[4]; mouse 5,607 mg
same,Macroscopic score for colon (0-8),[4]; mouse 5,1
same,Colon length,[4]; mouse 6,8.9 cm
same,Colon weight,[4]; mouse 6,632 mg
same,Macroscopic score for colon (0-8),[4]; mouse 6,1
same,Colon length,[4]; mouse 7,9.6 cm
same,Colon weight,[4]; mouse 7,612 mg
same,Macroscopic score for colon (0-8),[4]; mouse 7,0
same,Colon length,[4]; mouse 8,9.1 cm
same,Colon weight,[4]; mouse 8,635 mg
same,Macroscopic score for colon (0-8),[4]; mouse 8,1
Cc1cc(C)c(C[C@@H]2NC(=O)[C@H](Cc3ccccc3)NC(=O)[C@H](CC(N)=O)NC(=O)[C@H](CCCCN)NC(=O)[C@@H](NC(=O)[C@@H]3CCCN3)CSSC[C@@H](C(=O)N[C@@H](CCCCN)C(=O)O)NC(=O)[C@H](CO)NC(=O)[C@H]([C@@H](C)O)NC(=O)[C@H](Cc3ccccc3)NC(=O)[C@H]([C@@H](C)O)NC(=O)[C@H](CCCCN)NC(=O)[C@@H](Cc3c[nH]c4ccccc34)NC2=O)c(C)c1 [Analog 2],"effect on production of TNFα, IL-6 and NO by activated macrophages",Raw 264 macrophages,no effect
"Nc1ccc(O)c(C(=O)O)c1 [mesalazine, 5-aminosalycilic acid, reference compound]","protection from subsequent expositions to TNBS, tolerance effect",[2],fully or partially failed
CCCCCCCC(=O)N1CCC[C@H]1C(=O)N[C@H]1CSSC[C@@H](C(=O)N[C@@H](CCCCN)C(=O)O)NC(=O)[C@H](CO)NC(=O)[C@H]([C@@H](C)O)NC(=O)[C@H](Cc2ccccc2)NC(=O)[C@H]([C@@H](C)O)NC(=O)[C@H](CCCCN)NC(=O)[C@@H](Cc2c[nH]c3ccccc23)NC(=O)[C@H](Cc2c(C)cc(C)cc2C)NC(=O)[C@H](Cc2ccccc2)NC(=O)[C@H](CC(N)=O)NC(=O)[C@H](CCCCN)NC1=O [Analog 3],"effect on production of TNFα, IL-6 and NO by activated macrophages",Raw 264 macrophages,no effect
